Among the test systems are ACHN renal; LOX IMVI melanoma; UACC-62 melanoma; MOLT-4 leukemia; NCI-H522 lung; K-562 leukemia; SK-OV-3 ovarian; UO-31 renal; SF-295 CNS; KM12 colon.
Test in all cases: NCI anticancer screen, dose series, 48 h

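Exposure lasted 48 hours, with cells grown in 96-well plates and compounds tested at five concentrations. Abbreviation: GI50, concentration required for 50% inhibition of growth. At the TGI there is no net growth.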 Where only a bound is given, the exact number is not on record here.

Consider `O=C(/C=C/c1ccccn1)c1ccccc1O`, for which the GI50 in the test on ACHN renal is 1.92 µM; in the test with LOX IMVI melanoma it was 1.85 µM; in the test with UACC-62 melanoma it was 1.82 µM; with MOLT-4 leukemia, 2.43 µM; with NCI-H522 lung, 1.56 µM; in the test on K-562 leukemia, 2.09 µM. In addition, the GI50 in the test on SK-OV-3 ovarian is 5.54 µM; in the test on UO-31 renal, 1.31 µM; in the test with SF-295 CNS, 2.23 µM; with KM12 colon, 1.55 µM. Further, the TGI with ACHN renal is 3.51 µM; with LOX IMVI melanoma it was 4.43 µM; in the test with UACC-62 melanoma it was 3.87 µM; in the test on MOLT-4 leukemia, 7.04 µM; in the test on NCI-H522 lung, 3.08 µM; in the test with K-562 leukemia, more than 100 µM. For the same molecule, the TGI was found to be 17.9 µM in the test with SK-OV-3 ovarian, 2.6 µM with UO-31 renal, 4.67 µM with SF-295 CNS and 3.04 µM in the test on KM12 colon.

As for `COc1ccc(S(=O)(=O)N2CCN(C(=O)OCc3ccccc3)CC2C(=O)NO)cc1` (stereo not given), the GI50 in the test on ACHN renal was 10.6 µM; with LOX IMVI melanoma, 1.28 µM; in the test with UACC-62 melanoma it was more than 25 µM; in the test on MOLT-4 leukemia it was 5.37 µM; in the test on NCI-H522 lung, 5.16 µM; in the test on K-562 leukemia, 13.6 µM. Also, the GI50 in the test on SK-OV-3 ovarian is more than 25 µM; with UO-31 renal it was 17 µM; in the test with SF-295 CNS, more than 25 µM; in the test with KM12 colon, more than 25 µM. Further, the TGI in the test on ACHN renal was more than 25 µM; in the test with LOX IMVI melanoma it was 4.6 µM; in the test with UACC-62 melanoma, more than 25 µM; in the test with MOLT-4 leukemia, 18.4 µM; in the test with NCI-H522 lung it was more than 25 µM; with K-562 leukemia it was more than 25 µM. Also, the TGI in the test on SK-OV-3 ovarian, with UO-31 renal, in the test on SF-295 CNS and in the test with KM12 colon was more than 25 µM in each case.

The record behind these values is PubChem BioAssay (NCI).
